Values joined by “and” are separate entries in the source; they are usually repeats but may differ in a detail not shown here. Equal values may be shown once. Read-outs that look alike come from different tables or passages of the source.
Key:
[1] = system: tbaqp1-2-3 null cells expressing TbAQP2WT; experiment: Drug sensitivity assay (resazurin), pentamidine and SHAM; format: cell-based, Trypanosoma brucei brucei; conditions: Trypanosoma brucei, +AQP2 W.T in aqp1-3 triple KO; 3 repeats; read-out: Alamar blue EC50, MEAN
[2] = system: tbaqp2/tbaqp3 null cells expressing TbAQP3; format: cell-based, Trypanosoma brucei brucei
[3] = system: tbaqp2/tbaqp3 null cells expressing TbAQP2^W192G; format: cell-based, Trypanosoma brucei brucei
[4] = system: tbaqp2/tbaqp3 null cells expressing TbAQP2 L218M; experiment: microbe, parasite or virus in culture; format: cell-based, Trypanosoma brucei brucei; conditions: Trypanosoma brucei
T. b. brucei 2T1 [5] = format: cell-based, Trypanosoma brucei brucei
T. b. brucei 2T1 [6] = experiment: Drug sensitivity assay (resazurin); format: cell-based; conditions: Trypanosoma brucei, 48 h drug + 24 h resazurin, read-out: EC50 control 2T1 AVG
Description: The tbaqp2/tbaqp3 null cells ([Baker et al., 2012]) and tbaqp1-2-3 null cells ([Jeacock et al., 2017]) (both obtained from David Horn, University of Dundee, UK) are derived from the 2T1 strain of T. b. brucei ([Alsford and Horn, 2008]). The CRK12 RNAi cell line^28 was obtained from Dr Tansy Hammarton (University of Glasgow, UK) and is also based on the 2T1 cell line; RNAi expression was induced with 1 µg/ml tetracycline in the medium. All experiments were performed with bloodstream form trypanosomes grown in vitro in HMI-11 medium as described ([Wallace et al., 2002]) at 37°C in a 5% CO2 atmosphere. Cultures were routinely maintained in 10 ml of this medium, being seeded at 5 × 10^4 cells/ml and passed to fresh medium at reaching approximately 3 × 10^6 cells/ml after 48 hr. For transport experiments 150 or 200 ml of culture was seeded at the same density in large flasks and incubated until the culture reached late-log phase.
Drug sensitivity assays for T. b. brucei bloodstream forms used the cell viability dye resazurin (Sigma) and were performed exactly as described ([Wallace et al., 2002]; [Bridges et al., 2007]) in 96-well plates with doubling dilutions of test compound, starting at 100 µM, over 2 rows of the plate (23 dilutions plus no-drug control). Incubation time with test compound was 48 hr (37°C/5% CO2), followed by an additional 24 hr in the presence of the dye.

[7] = system: tbaqp2/tbaqp3 null cells expressing TbAQP2 L84W; experiment: microbe, parasite or virus in culture; format: cell-based, Trypanosoma brucei brucei
3×HA tagged TbAQP2 = molecular target: T1, 3×HA tagged TbAQP2 (Trypanosoma brucei brucei, UniProt Q6ZXT3); format: cell-based
T1 construct: expressed in transfected cells; host or cells: T. brucei 2T1 bloodstream forms, tetracycline-induced
T1 sequence (Q6ZXT3 whole entry): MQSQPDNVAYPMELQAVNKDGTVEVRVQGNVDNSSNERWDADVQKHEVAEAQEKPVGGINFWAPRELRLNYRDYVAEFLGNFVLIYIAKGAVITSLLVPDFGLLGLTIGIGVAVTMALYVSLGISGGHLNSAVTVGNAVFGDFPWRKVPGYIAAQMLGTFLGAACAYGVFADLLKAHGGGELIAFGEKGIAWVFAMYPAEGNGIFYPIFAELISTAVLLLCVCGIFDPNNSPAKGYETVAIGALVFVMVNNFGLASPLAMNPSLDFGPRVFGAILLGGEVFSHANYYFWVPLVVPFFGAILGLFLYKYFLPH

[8] = system: tbaqp2/tbaqp3 null cells expressing TbAQP2^I190T/W192G; format: cell-based, Trypanosoma brucei brucei

N=C(N)c1ccc(OCCCCCOc2ccc(C(=N)N)cc2)cc1 [Pentamidine]
EC50 [1]: 1.1 nM
EC50 as percent of AQP2/3 null EC50, MEAN [2]: 105.70%
EC50 as percent of AQP2/3 null EC50, MEAN [3]: 8.08%
EC50 ([4]; read-out: Alamar blue EC50, MEAN): 0.63 nM
EC50 ([4]; read-out: EC50 AVG): 0.63 nM
Transport rate AVG (T. b. brucei 2T1 [5]): 21.86
EC50 (T. b. brucei 2T1 [6]): 15 nM
EC50 ([7]; Trypanosoma brucei, read-out: Alamar blue EC50, MEAN): 32 nM
EC50 ([7]; Trypanosoma brucei, read-out: Alamar blue EC50, single repeats): 34.5 nM
EC50 ([7]; Trypanosoma brucei, read-out: EC50 AVG): 32 nM
EC50 ([7]; read-out: Alamar blue EC50, single repeats): 33.6 nM and 27.8 nM
Effect on TbAQP2 turnover rate (3×HA tagged TbAQP2): identical turnover rates
EC50 as percent of AQP2/3 null EC50, MEAN [8]: 99.52%
EC50 as percent of AQP2/3 null EC50, single repeats [8]: 131.67% and 89.434% and 77.4635%

— PMC7473772 (eLife, 2020)
